Like-named read-outs stand apart in the source and are kept apart here.
Key:
[1] = tested on: constitutive active colorectal cancer cell (CRC) Wnt pathway; experiment: HCT116 TOPFlash cellular reporter assay (Super TopFlash luciferase), constitutive active Wnt pathway; assay type: cell-based; settings: HCT116 TOP reporter cells, 36 hours incubation, luciferase expression
Procedure: In order to discover and characterize small molecules which inhibit the constitutive active colorectal cancer cell (CRC) Wnt pathway, a cellular reporter assay was employed. […] Stable transfectants were generated by cotransfection with pcDNA3 and selection of stable transfected cells with 1 mg/ml G418.

[2] = tested on: HCT116 FOP control reporter cell line; experiment: HCT116 FOPFlash control reporter assay (FOP control vector, non-functional TCF elements); assay type: cell-based; settings: HCT116 FOP control reporter cells, 36 hours incubation, luciferase expression
Text: (§1) In a parallel approach, HCT116 cells were cotransfected with the FOP control vector and pcDNA3. The FOP vector is identical to the TOP construct, but it contains instead of functional TCF elements a randomized, non-functional sequence. For this transfection a stable transfected cell line was generated as well.

[3] = tested on: HEK293 FOP control reporter cell line; experiment: HEK293 FOP control reporter assay; assay type: cell-based, human; settings: read-out: HEK FOP IC50
Procedure: (§2) Measurement of luciferase expression was done as described for the constitutive active Wnt assay.
as §1, with “HEK293” for “HCT116”, “well, based on selection with Geneticin (1 mg/ml).” for “well.”

wildtype Wnt pathway = experiment: HEK293 TOP reporter assay, wildtype Wnt pathway stimulated with Wnt-3a; assay type: cell-based, human; settings: Homo sapiens, HEK293, 16 h; read-out: HEK TOP OncoFlash IC50
Procedure: as §2
In order to discover and characterize small molecules which inhibit the wildtype Wnt pathway, a cellular reporter assay was employed. […] Stable transfectants were generated by selection with 300 μg/ml Hygromycin.

[4] = HEK293 FOP control cells, EC50 concentration of recombinant Wnt-3a, 16 hours

Compound	IC50 ([1]; Homo sapiens, HCT-116, 36 h) [µM]	IC50 ([2]; Homo sapiens, HCT-116, 36 h) [µM]	IC50 (wildtype Wnt pathway) [µM]	IC50 ([3]; Homo sapiens, HEK293, 16 h) [µM]	further results
N-[6-(2-fluorophenyl)pyridin-3-yl]-3-{[(2S)-2-(4-methylpiperazin-1-yl)propanoyl]amino}-4-(trifluoromethoxy)benzamide or N-[6-(2-fluorophenyl)pyridin-3-yl]-3-{[(2R)-2-(4-methylpiperazin-1-yl)propanoyl]amino}-4-(trifluoromethoxy)benzamide [Example 66]					IC50 [1]: 0.011 µM; IC50 [2]: ≥ 50 µM; IC50 [3, 4]: ≥ 50 µM
COCc1ccc(C(=O)Nc2nnc(-c3ccccc3)s2)cc1NC(=O)CN1CCN(C)CC1 [Example 46, 4-(methoxymethyl)-3-{[(4-methylpiperazin-1-yl)acetyl]amino}-N-(5-phenyl-1,3,4-thiadiazol-2-yl)benzamide]	0.164	≥ 50	0.69	≥ 50	
COc1ccc(C(=O)Nc2ccc(-c3ccccc3F)nc2)cc1NC(=O)CN1CCOCC1 [Example 1, N-[6-(2-fluorophenyl)pyridin-3-yl]-4-methoxy-3-[(morpholin-4-ylacetyl)amino]benzamide]	1.14	≥ 50	3.3	≥ 50	
O=C(CN1CCOCC1)Nc1cc(NC(=O)c2ccc(-c3ccccc3F)nc2)ccc1OC(F)(F)F [Example 30, 6-(2-fluorophenyl)-N-{3-[(morpholin-4-ylacetyl)amino]-4-(trifluoromethoxy)phenyl}nicotinamide]	0.0901	≥ 50	1.4	≥ 50	
CC(C(=O)Nc1cc(C(=O)Nc2nnc(-c3ccccc3)s2)ccc1OC(F)(F)F)N1CCOCC1 (stereo not drawn) [Example 57, 3-{[2-(morpholin-4-yl)propanoyl]amino}-N-(5-phenyl-1,3,4-thiadiazol-2-yl)-4-(trifluoromethoxy)benzamide]				≥ 50	IC50 [2]: ≥ 50 µM
COC(=O)c1ccc(C(=O)Nc2nnc(-c3ccccc3)s2)cc1NC(=O)CN1CCN(C)CC1 [Example 105, methyl 2-{[(4-methylpiperazin-1-yl)acetyl]amino}-4-[(5-phenyl-1,3,4-thiadiazol-2-yl)carbamoyl]benzoate]	0.064	≥ 50	0.3	≥ 50	
O=C(CN1CCOCC1)Nc1cc(NC(=O)c2ncc(-c3ccccc3)s2)ccc1OC(F)(F)F [Example 16, N-{3-[(morpholin-4-ylacetyl)amino]-4-(trifluoromethoxy)phenyl}-5-phenyl-1,3-thiazole-2-carboxamide]	0.0178	≥ 50	0.092	≥ 50	
O=C(Nc1ccc(-c2ccccc2F)nc1)c1ccc(OC2CC2)c(NC(=O)C2(N3CCOCC3)CC2)c1 [Example 134, 4-(cyclopropyloxy)-N-[6-(2-fluorophenyl)pyridin-3-yl]-3-({[1-(morpholin-4-yl)cyclopropyl]carbonyl}amino)benzamide]	0.0166	5.2	0.031	12	
CS(=O)(=O)Cc1ccc(C(=O)Nc2nnc(-c3ccccc3)s2)cc1NC(=O)C1(N2CCN(C3CC3)CC2)CC1 [Example 48, 3-({[1-(4-cyclopropylpiperazin-1-yl)cyclopropyl]carbonyl}amino)-4-[(methylsulfonyl)methyl]-N-(5-phenyl-1,3,4-thiadiazol-2-yl)benzamide]	0.0737	≥ 50	0.13	≥ 50	
CN1CCN(CC(=O)Nc2cc(C(=O)Nc3nnc(-c4ccccc4)s3)ccc2OC(F)(F)F)CC1 [Example 54, 3-{[(4-methylpiperazin-1-yl)acetyl]amino}-N-(5-phenyl-1,3,4-thiadiazol-2-yl)-4-(trifluoromethoxy)benzamide]	0.104	28	0.13	≥ 50	
C[C@@H](C(=O)Nc1cc(C(=O)Nc2ccc(-c3ccccc3F)nc2)ccc1OC(F)(F)F)N1CCN(C)CC1 (single isomer, unassigned) [Example 65, N-[6-(2-fluorophenyl)pyridin-3-yl]-3-{[(2S)-2-(4-methylpiperazin-1-yl)propanoyl]amino}-4-(trifluoromethoxy)benzamide or N-[6-(2-fluorophenyl)pyridin-3-yl]-3-{[(2R)-2-(4-methylpiperazin-1-yl)propanoyl]amino}-4-(trifluoromethoxy)benzamide]					IC50 [2]: ≥ 50 µM; IC50 [3, 4]: ≥ 50 µM
O=C(CN1CCOCC1)Nc1cc(NC(=O)c2ccc(-c3cccc(F)c3F)nc2)ccc1OC(F)(F)F [Example 26, 6-(2,3-difluorophenyl)-N-{3-[(morpholin-4-ylacetyl)amino]-4-(trifluoromethoxy)phenyl}nicotinamide]				≥ 50	
CC(=O)Nc1ccc(-c2ccc(NC(=O)c3ccc(OC(F)(F)F)c(NC(=O)C(C)N4CCOCC4)c3)cn2)cc1 (stereo not drawn) [Example 113, N-[6-(4-acetamidophenyl)pyridin-3-yl]-3-{[2-(morpholin-4-yl)propanoyl]amino}-4-(trifluoromethoxy)benzamide]				≥ 50	
O=C(Nc1ccc(-c2ccccc2F)nc1)c1ccc(OC2CC2)c(NC(=O)C2(N3CCN(C4CC4)CC3)CC2)c1 [Example 136, 4-(cyclopropyloxy)-3-({[1-(4-cyclopropylpiperazin-1-yl)cyclopropyl]carbonyl}amino)-N-[6-(2-fluorophenyl)pyridin-3-yl]benzamide]				≥ 50	
NC(=O)c1ccc(C(=O)Nc2ccc(-c3ccccc3F)nc2)cc1NC(=O)C1(N2CCOCC2)CC1 [Example 75, N^4-[6-(2-fluorophenyl)pyridin-3-yl]-2-({[1-(morpholin-4-yl)cyclopropyl]carbonyl}amino)terephthalamide]				≥ 50	
CC(C(=O)Nc1cc(C(=O)Nc2ccc(-c3ccccc3F)nc2)ccc1OC(F)(F)F)N1CCN(C)CC1 (stereo not drawn) [Example 64, N-[6-(2-fluorophenyl)pyridin-3-yl]-3-{[2-(4-methylpiperazin-1-yl)propanoyl]amino}-4-(trifluoromethoxy)benzamide]				≥ 50	
O=C(Nc1ccc(OC(F)(F)F)c(NC(=O)C2(N3CCOCC3)CC2)c1)c1ccc(-c2ccccc2)nc1 [Example 61, N-[3-({[1-(morpholin-4-yl)cyclopropyl]carbonyl}amino)-4-(trifluoromethoxy)phenyl]-6-phenylnicotinamide]				≥ 50	
COCc1ccc(C(=O)Nc2nnc(-c3ccccc3)s2)cc1NC(=O)C1(N2CCN(C3CC3)CC2)CC1 [Example 44, 3-({[1-(4-cyclopropylpiperazin-1-yl)cyclopropyl]carbonyl}amino)-4-(methoxymethyl)-N-(5-phenyl-1,3,4-thiadiazol-2-yl)benzamide]				≥ 50	
CN1CCN(C2(C(=O)Nc3cc(C(=O)Nc4nnc(-c5ccccc5)s4)ccc3CS(C)(=O)=O)CC2)CC1 [Example 49, 3-({[1-(4-methylpiperazin-1-yl)cyclopropyl]carbonyl}amino)-4-[(methylsulfonyl)methyl]-N-(5-phenyl-1,3,4-thiadiazol-2-yl)benzamide]				≥ 50	
O=C(CN1CCN(C2CC2)CC1)Nc1cc(C(=O)Nc2ccc(-c3ccccc3F)nc2)ccc1OC(F)(F)F [Example 63, 3-{[(4-cyclopropylpiperazin-1-yl)acetyl]amino}-N-[6-(2-fluorophenyl)pyridin-3-yl]-4-(trifluoromethoxy)benzamide]				≥ 50	
CC(C(=O)Nc1cc(C(=O)Nc2ccc(-c3ccc(N)cc3)nc2)ccc1OC(F)(F)F)N1CCOCC1 (stereo not drawn) [Example 111, N-[6-(4-aminophenyl)pyridin-3-yl]-3-{[2-(morpholin-4-yl)propanoyl]amino}-4-(trifluoromethoxy)benzamide]				≥ 50	
O=C(CN1CCOCC1)Nc1cc(C(=O)Nc2ncc(-c3ccccc3)s2)ccc1OC(F)(F)F [Example 14, 3-[(morpholin-4-ylacetyl)amino]-N-(5-phenyl-1,3-thiazol-2-yl)-4-(trifluoromethoxy)benzamide]				≥ 50	
O=C(Nc1ccc(-c2ccccc2)cn1)c1ccc(OC(F)(F)F)c(NC(=O)C2(N3CCOCC3)CC2)c1 [Example 95, 3-({[1-(morpholin-4-yl)cyclopropyl]carbonyl}amino)-N-(5-phenylpyridin-2-yl)-4-(trifluoromethoxy)benzamide]				≥ 50	
COc1ccc(NC(=O)c2ncc(-c3ccccc3)o2)cc1NC(=O)CN1CCOCC1 [Example 20, N-{4-methoxy-3-[(morpholin-4-ylacetyl)amino]phenyl}-5-phenyl-1,3-oxazole-2-carboxamide]				≥ 50	
O=C(Nc1nnc(-c2ccccc2)s1)c1ccc(OC(F)(F)F)c(NC(=O)C2(N3CCOCC3)CC2)c1 [Example 50, 3-({[1-(morpholin-4-yl)cyclopropyl]carbonyl}amino)-N-(5-phenyl-1,3,4-thiadiazol-2-yl)-4-(trifluoromethoxy)benzamide]				≥ 50	
Cc1ccc(C(=O)Nc2ccc(-c3ccccc3F)nc2)cc1NC(=O)C1(N2CCOCC2)CC1 [Example 76, N-[6-(2-fluorophenyl)pyridin-3-yl]-4-methyl-3-({[1-(morpholin-4-yl)cyclopropyl]carbonyl}amino)benzamide]				≥ 50	

— patent US10130633B2, “Compounds” (BAYER PHARMA AKTIENGESELLSCHAFT, priority 2013, dated 2018)
